The values that follow come from patent US20250276977A1, “TYK2 INHIBITORS AND USES THEREOF” (Alumis Inc., priority 2019, published 2025).

Like-named read-outs stand apart in the source and are kept apart here.

For data set [1] the following is noted: cn_pd bond, 14-membered ring, 1,4-dioxane.
For another data set, the system named is INFα induced pSTAT5. As to the kind of experiment: INFα induced pSTAT5 in human PBMC. In kind it is cell-based. The settings on record: INFα 5000 units/ml, read-out: p-STAT5 IC50. As to the method:
Fresh Human PBMCs were resuspended in RPMI 1640 medium with 10% FBS. Cells were seeded in a round bottom 96-well plate at the concentration of 200,000 cells/well. A 10-point dilution series of test compound (top dose 10 uM, 1:5 dilution) was added to the well using the liquid dispenser (Tecan D300e) and incubated for 1 hour at 37 C. Then human INFα recombinant protein (R&D Systems) was added to the well at the final concentration of 5000 units/ml and incubated for 15 minutes at 37 C. Cell lysates were prepared and analyzed by Phospho STAT3 (Tyr705) cellular kit (Cisbio) or Phospho STAT5 (Tyr693) Kit (Meso Scale Discovery) following manufacturer's protocol.
For calculation of the inhibition rate, the relative pSTAT signal of each well=pSTAT signal of each well−the average pSTAT signal of baseline.
The inhibition %=(the average pSTAT signal of INFα treatment wells—the relative of pSTAT signal in each compound containing well)/the average pSTAT signal of INFα treatment wells * 100%
The curve was plotted as the inhibition % (y-axis) vs. compounds concentration (x-axis) and was fitted with log(inhibitor) vs. normalized response—Variable slope by GraphPad Prism7.0.

The nature of data set [2]: Pharmacokinetic studies in Sprague Dawley rats. The format is in vivo. The settings on record: rat, plasma, male Sprague Dawley rats. As to the method: The pharmacokinetics of test compounds were evaluated in male Sprague Dawley rats when administered via oral gavage and IV injection. The test compound was suspended in 0.5% methylcellulose for oral gavage and dissolved in 5% DMSO/5% Solutol/90% saline for IV injection. The animals were fasted overnight before administration. Plasma samples were collected predose and at 0.5, 1, 3, 6, 9, 12, and 24 hours postdose. The samples were analyzed by LC/MS/MS and the concentration of test compound at each timepoint was determined by linear regression. Pharmacokinetic parameters were calculated from the plasma concentrations using Pheonix WinNonlin.

For `COc1c(F)cc2cc1Nc1cc(N(C)C(=O)OC(C)(C)C)n3ncc(c3n1)C(=O)N[C@H](C)COC2`, in data set [1] (from COc1c(N)cc(COC[C@@H](C)NC(=O)c2cnn3c(N(C)C(=O)OC(C)(C)C)cc(Cl)nc23)cc1F, tBuXPhos-Pd-G3/Cs2CO3, 8.4 mM, 80.0 °C, 2.0 h), the ring closure, isolated yield worked out at 52.5%. `COc1c(F)cc2cc1Nc1cc(NC(=O)OC(C)(C)C)c3ncc(n3n1)C(=O)N[C@H](C)COC2` came in with a ring closure, isolated yield in data set [1] (from COc1c(N)cc(COC[C@@H](C)NC(=O)c2cnc3c(NC(=O)OC(C)(C)C)cc(Cl)nn23)cc1F, tBuXPhos-Pd-G3/Cs2CO3, 8.4 mM, 80.0 °C, 2.0 h) of 52.5%. `COc1c2cc(c(F)c1F)COC[C@@H](C)NC(=O)c1cnc3c(NC(=O)OC(C)(C)C)cc(nn13)N2` showed a ring closure, isolated yield in data set [1] (from COc1c(N)cc(COC[C@@H](C)NC(=O)c2cnc3c(NC(=O)OC(C)(C)C)cc(Cl)nn23)c(F)c1F, tBuXPhos-Pd-G3/Cs2CO3, 3.5 mM, 80.0 °C, 2.0 h) of 47%. `COc1cc(F)c2cc1Nc1cc(N(C)C(=O)OC(C)(C)C)c3ncc(n3n1)C(=O)NC(C)COC2` (stereo not shown) returned a ring closure, isolated yield in data set [1] (from COc1cc(F)c(COCC(C)NC(=O)c2cnc3c(N(C)C(=O)OC(C)(C)C)cc(Cl)nn23)cc1N, tBuXPhos-Pd-G3/Cs2CO3, 4.1 mM, 85.0 °C, 2.0 h) of 53.6%. For `COc1cc(F)c2cc1Nc1cc(N(C)C(=O)OC(C)(C)C)n3ncc(c3n1)C(=O)N[C@H](C)COC2`, the ring closure, isolated yield in data set [1] (from COc1cc(F)c(COC[C@@H](C)NC(=O)c2cnn3c(N(C)C(=O)OC(C)(C)C)cc(Cl)nc23)cc1N, Pd2(dba)3/XPhos/Cs2CO3, 23.3 mM, 90.0 °C, 1.0 h) was determined as 74%. In the case of `COc1cc(F)c2cc1Nc1cc(NC(=O)OC(C)(C)C)c3ncc(n3n1)C(=O)N[C@H](C)COC2`, in data set [1] (from COc1cc(F)c(COC[C@@H](C)NC(=O)c2cnc3c(NC(=O)OC(C)(C)C)cc(Cl)nn23)cc1N, tBuXPhos-Pd-G3/Cs2CO3, 10.25 mM, 80.0 °C, 2.0 h), the ring closure, isolated yield was 56.1%. Consider `COc1cc2cnn3c2cc1Nc1cc(N(C)C(=O)OC(C)(C)C)c2ncc(n2n1)C(=O)NC(C)CC3` (stereo not shown), for which, in data set [1] (from COc1cc2cnn(CCC(C)NC(=O)c3cnc4c(N(C)C(=O)OC(C)(C)C)cc(Cl)nn34)c2cc1N, tBuXPhos-Pd-G3/Cs2CO3, 25.0 mM, 80.0 °C, 3.0 h), the ring closure, isolated yield was determined as 59%.

For `CNc1cc2nn3c(cnc13)C(=O)N[C@H](C)COCc1cc(c(=O)n(C)c1)N2` [Example 15], in the data set on INFα induced pSTAT5 (Homo sapiens, PBMC), the IC50 (in general, the point on the concentration scale where inhibition reaches its midpoint) came to 5.1 nM. Also, in data set [2] (iv, I.V. (1 mg/kg)), the AUC (as a rule, the area under the concentration-time curve, a measure of exposure) came out at 472 ± 93 ng·h/mL; the C0 was 539 ± 54 ng/mL; the clearance (in general, the volume of plasma or blood freed of the substance per unit of time) stood at 36.1 ± 8 mL/min/kg; the half-life (usually the time in which the quantity being followed falls by half) was 1.02 ± 0.059 h. Moreover, the Vd in data set [2] (iv, I.V. (1 mg/kg), read-out: Vdss) worked out at 2.17 ± 0.08 L/kg. In data set [2] (Oral (5 mg/kg)), the AUC is 147 ± 40 ng·h/mL; the Cmax (commonly the maximum level reached in the sampled fluid or tissue) turned out to be 22.2 ± 5 ng/mL; the Tmax (usually the time from dosing to the highest level) was 2.67 ± 1.2 h; the bioavailability (in general, the share of a dose that reaches the circulation, judged against a reference dose that is usually intravenous) worked out at 6.23 ± 1.7%. In data set [2] (Oral (5 mg/kg)), the half-life is 4.11 ± 1.9 h. On to `CNc1cc2nc3c(cnn13)C(=O)N[C@H](C)COCc1cc(c3nn(C)nc3c1)N2` [Example 35], for which the IC50 in the data set on INFα induced pSTAT5 (Homo sapiens, PBMC) is 1.7 nM. Same read-out and setting: in the case of `CNc1cc2nc3c(cnn13)C(=O)N[C@H](C)COCc1cc(c3nnn(C)c3c1)N2` [Example 36] it was 0.7 nM. Still for that read-out and setting: as for `CNc1cc2nc3c(cnn13)C(=O)N[C@H](C)COCc1cc(c3c(c1)nnn3C)N2` [Example 37], the figure is 90.1 nM; as for `CNc1cc2nc3c(cnn13)C(=O)N[C@H](C)COc1ccc(OC)c(c1)N2` [Example 38], more than 200 nM; as for `CNc1cc2nc3c(cnn13)C(=O)N[C@H](C)COCc1ccc(C#N)c(c1)N2` [Example 40], 2.4 nM. For `CNC(=O)c1ccc2cc1Nc1cc(NC)n3ncc(c3n1)C(=O)N[C@H](C)COC2` [Example 41], in the data set on INFα induced pSTAT5 (Homo sapiens, PBMC), the IC50 was 3.6 nM. Consider `CNc1cc2nn3c(cnc13)C(=O)N[C@H](C)COCc1ccc(OC)c(c1)N2` [Example 42], for which the IC50 in the data set on INFα induced pSTAT5 (Homo sapiens, PBMC) came to 13.6 nM. Still for that read-out and setting: as for `CNc1cc2nc3c(cnn13)C(=O)N[C@H](C)COCc1ccc(OC(F)(F)F)c(c1)N2` [Example 43], the figure is 3.8 nM; as for `CNc1cc2nc3c(cnn13)C(=O)N[C@H](C)COCc1cc(C#N)cc(c1)N2` [Example 44], 2 nM; as for `CNc1cc2nc3c(cnn13)C(=O)N[C@H](C)COCc1cc(cc(OC)c1)N2` [Example 45], 1.1 nM. On the same count and under the same terms, as for `CNc1cc2nc3c(cnn13)C(=O)N[C@H](C)COCc1cc(F)cc(c1)N2` [Example 46], the figure is 2.8 nM. In the case of `CNc1cc2nc3c(cnn13)C(=O)N[C@H](C)COCc1cnc(OC)c(c1)N2` [Example 47], the IC50 with INFα induced pSTAT5 is 2.4 nM. As to `CNc1cc2nc3c(cnn13)C(=O)N[C@H](C)COCc1cc(Br)c(OC)c(c1)N2` [Example 48], in the data set on INFα induced pSTAT5 (Homo sapiens, PBMC), the IC50 is 16.7 nM. Same read-out and setting: in the case of `CNc1cc2nc3c(cnn13)C(=O)N[C@H](C)COCc1cc(nc(N3CCCC3=O)c1)N2` [Example 49] it was 1.7 nM; in that of `CNc1cc2nn3c(cnc13)C(=O)N[C@H](C)COCc1nc(C)cc(n1)N2` [Example 50, (7R,E)-3^6,7-dimethyl-1^8-(methylamino)-5-oxa-2,8-diaza-1(6,3)-imidazo[1,2-b]pyridazina-3(4,2)-pyrimidinacyclononaphan-9-one], more than 1000 nM; in that of `CNc1cc2nc3c(cnn13)C(=O)N[C@H](C)COCc1cc(c(OC)cc1F)N2` [Example 52, (R, 1^3E, 1^4E)-3^4-fluoro-3^6-methoxy-7-methyl-1^7-(methylamino)-5-oxa-2,8-diaza-1(5,3)-pyrazolo[1,5-a]pyrimidina-3(1,3)-benzenacyclononaphan-9-one], 5.9 nM. Take `CNc1cc2nc3c(cnn13)C(=O)N[C@H](C)COCc1cc(c3cn(C)nc3c1)N2` [Example 53, (R, 1^3E, 1^4E, 3^4E)-3^2,7-dimethyl-1^7-(methylamino)-3^2H-5-oxa-2,8-diaza-1(5,3)-pyrazolo[1,5-a]pyrimidina-3(4,6)-indazolacyclononaphan-9-one]: the IC50 in the data set with INFα induced pSTAT5 (Homo sapiens, PBMC) was 9.4 nM. Still for that read-out and setting: in the case of `CNc1cc2nc3c(cnn13)C(=O)N[C@H](C)COCc1cc(c3cnn(C)c3c1)N2` [Example 54, (R, 1^3E, 1^4E)-31,7-dimethyl-1^7-(methylamino)-31H-5-oxa-2,8-diaza-1(5,3)-pyrazolo[1,5-a]pyrimidina-3(4,6)-indazolacyclononaphan-9-one] it was 0.3 nM.

Take `COc1ccc2nc1Nc1cc(N)n3ncc(c3n1)C(=O)N[C@H](C)COC2` [Example 55, (R, 1^3E, 1^4E)-33-methoxy-7-methyl-1^7-(methylamino)-5-oxa-2,8-diaza-1(5,3)-pyrazolo[1,5-a]pyrimidina-3(2,6)-pyridinacyclononaphan-9-one]: in the data set with INFα induced pSTAT5 (Homo sapiens, PBMC), the concentration for half-maximal inhibition (IC50) was more than 200 nM. Same read-out and setting: as for `CNc1cc2nc3c(cnn13)C(=O)N[C@H](C)COCc1ccc(F)c(c1)N2` [Example 56, (R, 1^3E, 1^4E)-3^6-fluoro-7-methyl-1^7-(methylamino)-5-oxa-2,8-diaza-1(5,3)-pyrazolo[1,5-a]pyrimidina-3(1,3)-benzenacyclononaphan-9-one], the figure is 28.8 nM. The same measure, in the same setting: as for `CNc1cc2nc3c(cnn13)C(=O)N[C@H](C)COCc1cc(c(=O)n(C)n1)N2` [Example 57, (R,1^3E,1^4E,3^4E)-31,7-dimethyl-1^7-(methylamino)-3^1,3^6-dihydro-5-oxa-2,8-diaza-1(5,3)-pyrazolo[1,5-a]pyrimidina-3(5,3)-pyridazinacyclononaphane-36,9-dione], the figure is 21.2 nM; as for `CNc1cc2nn3c(cnc13)C(=O)N[C@H](C)COCc1cc(c(=O)n(C)n1)N2` [Example 58, (15E,34E,7R)-31,7-dimethyl-18-(methylamino)-31,36-dihydro-5-oxa-2,8-diaza-1(6,3)-imidazo[1,2-b]pyridazina-3(5,3)-pyridazinacyclononaphane-36,9-dione], 7.7 nM.

In the case of `CNc1cc2nc3c(cnn13)C(=O)N[C@H](C)COCc1cc(c(OC)nn1)N2` [Example 59, (R,1^3E,1^4E)-3^6-methoxy-7-methyl-1^7-(methylamino)-5-oxa-2,8-diaza-1(5,3)-pyrazolo[1,5-a]pyrimidina-3(5,3)-pyridazinacyclononaphan-9-one], in the data set with INFα induced pSTAT5 (Homo sapiens, PBMC), the IC50 is 39.1 nM. Still for that read-out and setting: as for `CNc1cc2nc3c(cnn13)C(=O)N[C@H](C)COCc1cc(c3nccn3c1)N2` [Example 60, (R,1^3E,1^4E,3^7E)-7-methyl-1^7-(methylamino)-5-oxa-2,8-diaza-1(5,3)-pyrazolo[1,5-a]pyrimidina-3(8,6)-imidazo[1,2-a]pyridinacyclononaphan-9-one], the figure is 3.8 nM; as for `CNc1cc2nc3c(cnn13)C(=O)N[C@H](C)COCc1cc(F)c(OC)c(c1)N2` [Example 62], 3.8 nM.
